Measurements from US20100306877A1, “FLAVONOID GLUCOSYLTRANSFERASE AND USE OF SAME” (International Flower Development Proprietary Limited, priority 2006, published 2010).

Test system: protein encoded by cDNA contained in pSPB1123 (flavonol 3GT)
Test: Glucosyltransferase activity of the protein encoded by pSPB1123 cDNA expressed in yeast, product measured by HPLC
Format: biochemical, rose
Settings: flavonol substrates compared
Source text: In order to analyze the activity of a protein encoded by cDNA contained in pSPB1123, this cDNA was expressed in yeast cells. Yeast expression vector pYE22m (Plant Cell Physiol. (1996) 37, 711-716) was used to express the cDNA in yeast. A fragment obtained by digested pSPB1123 cDNA with EcoRI and KpnI was inserted into an EcoRI and KpnI recognition sequence of pYE22m to obtain a yeast expression vector. This vector was then inserted into yeast strain G1315 followed by measurement of activity of the protein encoded by pSPB1123 according to the method described on pp. 114-118 of Shinseibutsugaku Jikken (New Biological Experiment) Manual 3 (Kagaku-Dojin Publishing Co., Inc.). The method for measuring activity and the conditions for measuring a product by HPLC were the same as the method and the like described in Plant Physiology (2003) 132, 1652-1663. Furthermore, anthocyanin (cyanidin, pelargonidin), cyanidin 3-glucoside (cyanidin 3G), cyanidin 3,5-diglucoside (cyanidin 3,5G), flavonol (quercetin, kaempferol) and flavone (apigenin, luteolin) were used as substrates for measurement of the activity.

O=c1c(O)c(-c2ccc(O)cc2)oc2cc(O)cc(O)c12 [kaempferol]
substrate preference: prefer quercetin to kaempferol

O=c1c(O)c(-c2ccc(O)c(O)c2)oc2cc(O)cc(O)c12 [quercetin]
substrate preference: prefer quercetin to kaempferol
